Target: IcmR-IcmQ (Legionella pneumophila, UniProt O54635)

NC(=O)c1ccc[n+]([C@@H]2O[C@H](COP(=O)(O)OP(=O)(O)OC[C@H]3O[C@@H](n4cnc5c(N)ncnc54)[C@H](O)[C@@H]3O)[C@@H](O)[C@H]2O)c1 [NAD+]
filter binding assay, 32P-labelled NAD+: A similar binding profile was observed for wild type IcmR-IcmQ complexes.
